Results reported in patent US6235761A, “Compound, composition and method for treating cancer” (priority 1999, dated 2001).

What was measured:
MX-1 mammary tumor = test: sc MX-1 mammary tumor in athymic mice (Table 2); type: in vivo, human tumor in athymic mice (Ncr-nu)
Protocol: (§1) This Example illustrates the efficacy of penclomedine and 4-demethylpenclomedine in the treatment of cancer. MX-1 mammary tumor xenograft was subcutaneously implanted into mice, and the mice were exposed to the compounds. The testing of the mice was performed following a published procedure. See, e.g., Plowman et al., supra; Geran et al., Cancer Chemother. Rep., Part 2, 1-55 (1972); Developmental Therapeutics Program, Division of Cancer Treatment, NCI, in In Vivo Models 1976-1982, NIH Publication No. 84-2635, Washington D.C., U.S. Govt. Printing Office (1984).
(§2) This Example further illustrates the efficacy of penclomedine and 4-demethylpenclomedine in the treatment of cancer. The compounds were tested in vivo on mice by the procedure set forth in Example 2. The results obtained are set forth in Table 2 and confirm that 4-demethyl-penclomedine is active against cancer, particularly mammary, colon, and renal cancer.
(§3) ^a Athymic mice (Ncr-nu) were implanted either intracranially (ic) with
(§4) […] MX-1 mammary tumor cells or subcutaneously (sc) with fragments of
(§5) human tumors (CAKI-, renal; HT29, colon; MX-1, mammary).
(§6) ^b The difference in the median of time poststaging for tumors to
(§7) double in mass: T (treated mice), C (control mice)

HT29 colon tumor = test: sc HT29 colon tumor in athymic mice (Table 2); type: in vivo, human tumor in athymic mice (Ncr-nu); settings: for T-C / Tumor-Free Survival/Total: days 14-18
Protocol: as §1, §2, §3, §4, §5, §6, §7

CAKI-1 renal tumor = test: sc CAKI-1 renal tumor in athymic mice (Table 2); type: in vivo, human tumor in athymic mice (Ncr-nu); settings: for T-C / Tumor-Free Survival/Total: days 19-23
Protocol: as §1, §2, §3, §4, §5, §6, §7

[1] = Human plasma levels of penclomedine and demethylpenclomedine during 5 day penclomedine treatment; type: in vivo, human patients
Description: FIG. 1 depicts levels of penclomedine and the demethylpenclomedine metabolite in human plasma, as determined by HPLC chromatographic analysis with uv detection.
FIG. 2 depicts the penclomedine (gray shade) and demethylpenclomedine (white) levels in human plasma on each of five treatment days. Data are from a single patient and are typical. The same ordinate scale is used for both penclomedine and demethylpenclomedine. Pre-infusion levels are depicted without cross hatchings; end of infusion levels are depicted with cross hatchings.
A 1 ml aliquot of tissue homogenate or a […] was acidified with 200 ml of 0.7 M ammonium phosphate pH 2.7, then 3 ml of ethyl acetate was added. This mixture was vortexed, centrifuged and the organic layer was collected. Fifty microliters of DMSO were added, and the ethyl acetate was concentrated to approximately […] with a stream of dry nitrogen. Fifty microliters of acetonitrile were added to this residue, and the resulting solution was analyzed by HPLC. Human plasma was processed identically to mouse plasma with the exception that 500 ml of plasma was extracted. Concentrated cage washings were analyzed by HPLC without further processing.
HPLC Assays: The HPLC system consisted of a Hewlett-Packard Series II 1090 liquid chromatograph with diode array detector (Hewlett-Packard, Palo Alto, Calif.). The column used was an Alltech Adsorbosphere HS C18 5 m 250×4.6 mm column (Alltech Associates, Deerfield, Ill.). The system used a gradient elution consisting of 100% 10 mM ammonium phosphate buffer pH 2.7 progressing to 100% acetonitrile over 25 minutes at 1 ml/min. Detection was performed by means of ultraviolet absorbance at 240 nm as well as by means of radioactivity using a Radiomatic Flo-One/Beta A140 radioactive flow detector (Packard Instrument Co., Downers Grove, Ill.) equipped with a […] and Flo-Scint VI scintillation cocktail at a 2:1 ratio.
This example illustrates the distribution of penclomedine and 4-demethylpenclomedine in human plasma during a 5 day treatment schedule using penclomedine.
Plasma levels of the metabolite and penclomedine were determined in 9 patients during the 5 day treatment schedule. […] Demethylpenclomedine plasma levels were equal to penclomedine plasma levels by 10 min after end of the infusion and rose to 9.5 μM by 7 hrs. […] The ratio of demethylpenclomedine to penclomedine in the post-infusion plasma sample obtained on day 1 of treatment was approximately 1:1; however, impressive accumulation of demethylpenclomedine was noted during the five day treatment schedule and by the final day this ratio was often greater than 10. […] A summary of post-infusion demethylpenclomedine plasma levels determined on each day of treatment for 9 patients is set forth in Table 4.

MX-1 mammary tumor cells = test: ic MX-1 mammary tumor in athymic mice, increased life span (Table 2); type: in vivo, human tumor in athymic mice (Ncr-nu); settings: days 1-5
Protocol: as §1, §2, §3, §4, §5
^c % ILS (increased life span) values are not provided where the mice
were sacrificed when tumors reached 4 g mass.

[2] = tested on: mammals, especially humans; test: Neurotoxicity of penclomedine versus 4-demethylpenclomedine; type: in vivo, human; settings: for neurotoxicity versus metabolite levels: administration of penclomedine to patients
Protocol: It has been observed that 4-demethylpenclomedine was present in clinical samples and continued to be present in the plasma for longer than 24 hours.

[3] = tested on: MX-1 Mammary Tumor Xenograft; test: Subcutaneously-implanted MX-1 mammary tumor xenograft in mice (Table 1); type: in vivo, human tumor in mice; settings: for Days to 2 Doublings / Non-Specific Deaths / Total / Tumor Free Survival/Total / Tumor Delay (T-C) / Tumor Regression, Complete / Tumor Regression, Partial / Duration of regression, Med: x5, from Day 12; for Tumor Delay (T-C): control 8.0 days; for Tumor Regression, Complete / Tumor Regression, Partial: number of mice
Protocol: as §1
Response of Subcutaneously-Implanted MX-1 Mammary Tumor Xenograft to
^1 Treatment started on Day 12 following tumor implant.
^2 Nonspecific deaths: A treated, tumored animal was presumed to be a
^3 Tumor regression was scored (excluding nonspecific deaths),
^4 Duration of regression: the interval during which a tumor classified
^5 Evaluation size: this value is the tumor mass selected at one or two
^6 Time required for tumor mass doubling: the time required for a tumor
^7 T-C (days): the difference in the median of times postimplant for […]

[4] = 135 mg/kg/dose oral, highest dosage level, days 13-17
[5] = 1 hr i.v. infusion penclomedine 315 mg/m^2
[6] = human plasma, single patient, FIG. 1
[7] = repeated administration of penclomedine
[8] = 135 mg/kg/dose oral, highest dosage level
[9] = five day samples, same patient, FIG. 2

COc1nc(C(Cl)(Cl)Cl)c(Cl)c(O)c1Cl [4-Demethylpenclomedine, 3,5-dichloro-2-methoxy-4-hydroxy-6-(trichloromethyl)-pyridine]
T-C (MX-1 mammary tumor; 90 mg/kg/dose IP, days 12-16): > 41.0 days
Tumor-Free Survival/Total (MX-1 mammary tumor; 90 mg/kg/dose IP, days 12-16): 3/5
T-C (MX-1 mammary tumor; 90 mg/kg/dose IP, days 15-19): > 37.2 days
Tumor-Free Survival/Total (MX-1 mammary tumor; 90 mg/kg/dose IP, days 15-19): 3/5
T-C (MX-1 mammary tumor; [4]): 36.7 days
Tumor-Free Survival/Total (MX-1 mammary tumor; [4]): 2/5
T-C, comparison of the two compounds (MX-1 mammary tumor; Table 2): nearly identical T-C
activity against MX-1 tumors (T-C) (MX-1 mammary tumor; Table 2): active against MX-1, colon, and renal tumors
T-C (HT29 colon tumor; 90 mg/kg/dose IP): 6.0 days
Tumor-Free Survival/Total (HT29 colon tumor; 90 mg/kg/dose IP): 0/5
activity against colon tumors (T-C) (HT29 colon tumor; Table 2): active against MX-1, colon, and renal tumors
T-C (CAKI-1 renal tumor; 90 mg/kg/dose IP): 14.5 days
Tumor-Free Survival/Total (CAKI-1 renal tumor; 90 mg/kg/dose IP): 0/5
activity against renal tumors (T-C) (CAKI-1 renal tumor; Table 2): active against MX-1, colon, and renal tumors
accumulation over the 5 day treatment ([1]; 9 patients): accumulation of metabolite was observed in all 9 patients
time after end of infusion at which plasma levels equal those of penclomedine [1, 5]: ≤ 10 min
time present in plasma ([1]; clinical samples): > 24 h
ratio of demethylpenclomedine to penclomedine in plasma ([1]; final day of five day schedule, often): greater than 10
persistence in plasma ([1]; five day treatment schedule): persisted in the plasma for an extended period of time
plasma level time course [1, 6]: continues to increase with time
drug exposure relative to parent compound [1, 7]: several hundred times that of the parent compound
plasma level relative to peak plasma level of penclomedine [1, 7]: greater than ten times the peak plasma level of penclomedine
Median % ILS (dying mice only) (MX-1 mammary tumor cells; 90 mg/kg/dose IP): +60%
Tumor-Free Survival/Total (MX-1 mammary tumor cells; 90 mg/kg/dose IP): 0/5
Median % ILS (dying mice only) (MX-1 mammary tumor cells; [8]): +66%
Tumor-Free Survival/Total (MX-1 mammary tumor cells; [8]): 1/5
neurotoxicity versus metabolite levels [2]: the levels of this metabolite increased as toxicity due to penclomedine resolved
Days to 2 Doublings ([3]; 60 mg/kg IP): 23.4 days
Non-Specific Deaths / Total ([3]; 60 mg/kg IP): 0/5
Tumor Free Survival/Total ([3]; 60 mg/kg IP): 2/5
Tumor Delay (T-C) ([3]; 60 mg/kg IP): 15.4 days
Tumor Regression, Complete ([3]; 60 mg/kg IP): 2
Tumor Regression, Partial ([3]; 60 mg/kg IP): 0
Days to 2 Doublings ([3]; 90 mg/kg IP): > 49.0 days
Duration of regression, Med ([3]; 90 mg/kg IP): 32.5 days
Non-Specific Deaths / Total ([3]; 90 mg/kg IP): 0/5
Tumor Free Survival/Total ([3]; 90 mg/kg IP): 3/5
Tumor Delay (T-C) ([3]; 90 mg/kg IP): > 41.0 days
Tumor Regression, Complete ([3]; 90 mg/kg IP): 5
Tumor Regression, Partial ([3]; 90 mg/kg IP): 0
Days to 2 Doublings ([3]; 135 mg/kg IP): > 49.0 days
Duration of regression, Med ([3]; 135 mg/kg IP): 35.7 days
Non-Specific Deaths / Total ([3]; 135 mg/kg IP): 1/5
Tumor Free Survival/Total ([3]; 135 mg/kg IP): 3/5
Tumor Delay (T-C) ([3]; 135 mg/kg IP): > 41.0 days
Tumor Regression, Complete ([3]; 135 mg/kg IP): 4
Tumor Regression, Partial ([3]; 135 mg/kg IP): 0
tumor growth delay, comparison of the two compounds ([3]; Table 1): identical tumor growth delay

COc1nc(C(Cl)(Cl)Cl)c(Cl)c(OC)c1Cl [Penclomedine, 3,5-dichloro-2,4-dimethoxy-6-(trichloromethyl)pyridine]
T-C (MX-1 mammary tumor; 135 mg/kg/dose IP, days 12-16): > 41.0 days
Tumor-Free Survival/Total (MX-1 mammary tumor; 135 mg/kg/dose IP, days 12-16): 5/5
T-C (MX-1 mammary tumor; 135 mg/kg/dose IP, days 13-17): > 38.5 days
Tumor-Free Survival/Total (MX-1 mammary tumor; 135 mg/kg/dose IP, days 13-17): 5/5
T-C (MX-1 mammary tumor; 135 mg/kg/dose IP, days 15-19): > 37.2 days
Tumor-Free Survival/Total (MX-1 mammary tumor; 135 mg/kg/dose IP, days 15-19): 5/5
T-C, comparison of the two compounds (MX-1 mammary tumor; Table 2): nearly identical T-C
survival rate, compared with 4-demethylpenclomedine (MX-1 mammary tumor; Table 2): slightly higher survival rate
T-C (HT29 colon tumor; 135 mg/kg/dose IP): 1.5 days
Tumor-Free Survival/Total (HT29 colon tumor; 135 mg/kg/dose IP): 0/5
T-C (CAKI-1 renal tumor; 135 mg/kg/dose IP): 15.3 days
Tumor-Free Survival/Total (CAKI-1 renal tumor; 135 mg/kg/dose IP): 0/5
decline of plasma levels after infusion [1, 5]: rapidly declined in an apparently biexponential fashion
post-infusion plasma level [1, 9]: always less than μM
pre-infusion plasma level [1, 9]: barely detectable
plasma level time course [1, 6]: rapidly cleared from plasma
α of biexponential decay [1, 6]: 3.88 h⁻¹
k el ([1]; in vivo, iv, human plasma, single patient, FIG. 1, read-out: β of biexponential decay (converted)): 0.000127 s⁻¹
Median % ILS (dying mice only) (MX-1 mammary tumor cells; 90 mg/kg/dose IP): +88%
Tumor-Free Survival/Total (MX-1 mammary tumor cells; 90 mg/kg/dose IP): 0/5
Median % ILS (dying mice only) (MX-1 mammary tumor cells; 90 mg/kg/dose oral): +72%
Tumor-Free Survival/Total (MX-1 mammary tumor cells; 90 mg/kg/dose oral): 0/5
neurotoxicity versus metabolite levels [2]: neurotoxicity did not increase while levels of this metabolite increased to several times the plasma levels of the parent drug
neurotoxicity to mammals, especially humans ([2]; in vivo): neurotoxic to mammals, especially to humans
Days to 2 Doublings ([3]; 60 mg/kg IP): > 49.0 days
Non-Specific Deaths / Total ([3]; 60 mg/kg IP): 0/5
Tumor Free Survival/Total ([3]; 60 mg/kg IP): 4/5
Tumor Delay (T-C) ([3]; 60 mg/kg IP): > 41.0 days
Tumor Regression, Complete ([3]; 60 mg/kg IP): 5
Tumor Regression, Partial ([3]; 60 mg/kg IP): 0
Days to 2 Doublings ([3]; 90 mg/kg IP): > 49.0 days
Non-Specific Deaths / Total ([3]; 90 mg/kg IP): 0/5
Tumor Free Survival/Total ([3]; 90 mg/kg IP): 5/5
Tumor Delay (T-C) ([3]; 90 mg/kg IP): > 41.0 days
Tumor Regression, Complete ([3]; 90 mg/kg IP): 5
Tumor Regression, Partial ([3]; 90 mg/kg IP): 0
Days to 2 Doublings ([3]; 135 mg/kg IP): > 49.0 days
Non-Specific Deaths / Total ([3]; 135 mg/kg IP): 0/5
Tumor Free Survival/Total ([3]; 135 mg/kg IP): 5/5
Tumor Delay (T-C) ([3]; 135 mg/kg IP): > 41.0 days
Tumor Regression, Complete ([3]; 135 mg/kg IP): 5
Tumor Regression, Partial ([3]; 135 mg/kg IP): 0
survival rate, compared with 4-demethylpenclomedine ([3]; Table 1): slightly higher survival rate
tumor growth delay, comparison of the two compounds ([3]; Table 1): identical tumor growth delay
